Assays:
Type in all cases: cell-based, human
[1] = tested on: DLC1; experiment: DLC1 protein and mRNA expression; details: MCF-7/TAMR1 and Ishikawa cells, 24 h
Procedure: MCF-7/Tam-sen, MCF-7/TAMR1 and Ishikawa cells were treated with E2 (10^−9M) or Tam (10^−9M) for 24 h, and cell lysates were assayed for DLC1 and Pak1 protein expression. […] FIG. 21C: Effect of different periods of E2 treatment and cycloheximide (CHX) and Actinomycin D (ACTD) treatment on the ability of E2 to upregulate DLC1 mRNA in MCF-7 cells.

[2] = tested on: Ishikawa and MCF-7/TAMR1 cells; experiment: Growth of Tam-resistant cells (cell number)
Procedure: FIGS. 22A–22F—DLC1 deregulation potentiates ligand-induced growth and anchorage-independence. FIG. 22A: DLC1 upregulation potentiates growth stimulation by E2 in a Tam-insensitive manner. MCF-7/DLC1 cells were treated with or without Dox and then with E2 (10^−9M) or Tam (10^−8M) for 5 days, and the cell number was determined. FIG. 22B: DLC1 upregulation promotes anchorage independence. […] FIG. 22C: DLC1 expression supports optimum growth of Tam-resistant cells. Ishikawa and MCF-7/TAMR1 cells were transfected with control or DLC siRNA for 48 h and then treated with or without Tam (10^−8M) for 96 h, and the cell number was determined. FIG. 22D: DLC1-mediated potentiation of ER transactivation depends on the Pak1 status in Ishikawa and MCF-7/TAMR1 cell lines. Ishikawa and MCF-7/TAMR1 cells were transfected with control or Pak1 siRNA for 48 h and then with ERE-luc for 24 h and treated with E2 (10^−9M) for 24 h and ERE-luc activity was measured. FIG. 22E: Pak1 expression level influences the growth of Tam resistant cells. Ishikawa and MCF-7/TAMR1 cells were treated with control or Pak1 siRNA for 48 h and treated with or without Tam (10^−8M) for 4 days, and cell number was determined. FIG. 22F: Co-downregulation of Pak1 and DLC1 in Tam-resistant cells restores Tam-sensitivity. […]

[3] = tested on: ZR 75 cells; experiment: Boyden chamber migration assay, NIH3T3 conditioned medium; details: stable ZR75 clones
Procedure: FIGS. 4A–4E—Effect of DLC1/PIN expression on cell motility. FIG. 4A: expression of DLC1/PIN in a number of normal and breast cancer cells analyzed by western blot analysis. FIG. 4B: Expression of T7-DLC1/PIN in stable clones analyzed by western blot analysis. FIG. 4C: Effect DLC1/PIN expression on the motility. Migratory potential of DLC1/PIN wild type or DLC1/PIN^del88-89 mutant expressing clones was measured by Boyden chamber assay using NIH3T3 conditioned medium as chemoattractant. Migrated cells were recorded by microscopy. Representative data of three replicate experiments is shown. FIG. 4D: ZR75/RFP-DLC1 cells which stably expressing wild type red florescent-tagged DLC1/PIN protein (RFPDLC1/PIN) was incubated with FITC-dextran beads. After twenty minutes, cells were fixed with methanol and stained for endogenous Pak1 (blue), RFPDLC1/PIN (red) and FITC-dextran (green). An inset containing the cytoplasmic region was blown up to visualize the colocalization of Pak1 and DLC1/PIN on dextran beads. Merged images are presented in the upper right panel, and colocalization of Pak1 with DLC1/PIN can be visualized as white vesicles due to colocalization of pixels from Pak1 (blue), DLC1/PIN (red) and FITC dextran (green). FIG. 4E: ZR75/RFP-DLC1/PIN were transfected with a dominant negative mutant of Pak1 K299RLL (a myc-tagged kinase dead and GTPase binding defective construct of Pak1). […]

Row | Compound | expression of the DLC1 protein [1] | growth of cells with downregulated DLC ([2]; Tam 96 h) | growth of cells with downregulated Pak1 ([2]; Tam 4 days) | migratory potential [3]
1 | CC/C(=C(\c1ccccc1)c1ccc(OCCN(C)C)cc1)c1ccccc1 [tamoxifen] | robustly upregulated | further reduced the growth | no further significant effect | –
2 | DLC1/PIN^del 88-89: DLC1/PIN mutant in which Ser88 and amino acid 89 were deleted | – | – | – | abolished DLC1/PIN mediated increase in the migratory potential

Reference: patent US7067633B2, “Targeting cellular entry, cell survival, and pathogenicity by dynein light chain 1/PIN in human cells” (Board of Regents, The University of Texas System, priority 2003, dated 2006)
